Among the test systems are DMS-114; DMS-273; LXFL 529; M19-MEL; SNB-78; XF498; KM-20L2; HOP-18; RXF 631.
Holding throughout (test): growth of human tumour cells (NCI), 48 h

Data on 26 compounds can be found in ChEMBL document CHEMBL1201862, “PubChem BioAssay data set” (2004).

SMILES strings stand for the structures.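 48-hour exposure; five concentrations; linearly interpolated endpoints. GI50 = concentration required for 50% inhibition of growth.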 Active and inactive are the calls of the source. Rule as the data show it: active = GI50 up to about 1.1 µM and inactive = higher.

Consider `CC1=C(SC#N)S(=O)(=O)N(c2ccccc2)C(C)=C1SC#N`, for which the GI50 in the assay on DMS-114 was 5.92 µM (inactive); in the assay with DMS-273, 50.5 µM (inactive); in the assay on LXFL 529, 22.4 µM (inactive); in the assay with M19-MEL it was 29.5 µM (inactive); in the assay on SNB-78, 78.3 µM (inactive); in the assay with XF498 it was 16.8 µM (inactive).
Turning to `CCOC(=O)[C@H]1Nc2ccc([N+](=O)[O-])cc2C2c3ccccc3CC21` (stereo partly drawn), the GI50 is 20.6 µM (inactive) with KM-20L2; 15.9 µM (inactive) in the assay on DMS-114; 12.6 µM (inactive) in the assay on DMS-273; 5.79 µM (inactive) in the assay on LXFL 529; 20.8 µM (inactive) in the assay on M19-MEL; 42.1 µM (inactive) in the assay on SNB-78. The GI50 with XF498 was 30 µM (inactive).
`COC(=O)CCCCCOS(=O)(=O)c1ccc(C)cc1`: the GI50 in the assay on HOP-18, in the assay with KM-20L2, with DMS-114, in the assay with DMS-273, in the assay on LXFL 529 and in the assay with M19-MEL was > 100 µM (inactive) each time. In addition, the GI50 in the assay with SNB-78, with RXF 631 and with XF498 was > 100 µM (inactive) each time.
Regarding `O=C(NC12CC3CC(CC(C3)C1)C2)C(=O)c1c[nH]c2ccccc12`, the GI50 is 5.94 µM (inactive) in the assay with KM-20L2; 18 µM (inactive) in the assay with DMS-114; 14.8 µM (inactive) in the assay with DMS-273; 13.4 µM (inactive) in the assay with LXFL 529; 18.7 µM (inactive) in the assay on M19-MEL; 18 µM (inactive) with SNB-78. In the assay with XF498, the GI50 was 13.1 µM (inactive).
Consider `O=C(Nc1ccc(Sc2ccc(/N=N/c3c(O)c(S(=O)(=O)O)cc4cc(S(=O)(=O)O)ccc34)cc2)cc1)c1ccc(/N=N/c2c(O)ccc3c(S(=O)(=O)O)cc(S(=O)(=O)O)cc23)cc1`, for which the GI50 was 33 µM (inactive) in the assay with HOP-18; 58.7 µM (inactive) with KM-20L2; 25.9 µM (inactive) in the assay on DMS-273; 25.2 µM (inactive) with LXFL 529; 16.6 µM (inactive) in the assay with M19-MEL; 36.4 µM (inactive) with SNB-78. The GI50 is 41.3 µM (inactive) in the assay with RXF 631 and 28.2 µM (inactive) in the assay with XF498.
For `CCOC(=O)C1Cc2ccc3c4c(ccc(c24)C1)CC(C(=O)OCC)C3`, the GI50 in the assay on HOP-18, in the assay with KM-20L2, with DMS-114, with DMS-273, with M19-MEL and in the assay on SNB-78 was > 100 µM (inactive) in each case. For the same compound, the GI50 with XF498 is > 100 µM (inactive).
`CCCCCCCCCCCCCC(=O)OC(/C=C/C(C)C)C(O)C(O)C(OC)C(=O)NC1CCCCN(C)C1=O` (stereo not drawn): the GI50 is 3.54 µM (inactive) with HOP-18; 2.94 µM (inactive) in the assay with KM-20L2; 1.2 µM (inactive) in the assay on DMS-114; 0.817 µM (active) in the assay with DMS-273; 2.97 µM (inactive) in the assay with LXFL 529; 3.48 µM (inactive) in the assay on M19-MEL. Besides, the GI50 is 4.8 µM (inactive) with SNB-78 and 1.18 µM (inactive) in the assay with RXF 631.
Consider `COc1ccc(CNc2cc(OC)c(OC)c(OC)c2)cc1`, for which the GI50 is > 21.7 µM (inactive) with HOP-18; 2.8 µM (inactive) in the assay on KM-20L2; 3.01 µM (inactive) in the assay on DMS-114; 2.09 µM (inactive) in the assay with DMS-273; 7.64 µM (inactive) in the assay with LXFL 529; 4.57 µM (inactive) in the assay with M19-MEL. Moreover, the GI50 in the assay on SNB-78 was 4.62 µM (inactive); in the assay with RXF 631 it was 3.47 µM (inactive); in the assay on XF498 it was 21.3 µM (inactive).
Regarding `Cc1cc2occ(C)c(=O)c2c2c1OC(C)(C)S2`, the GI50 with HOP-18, with KM-20L2, in the assay with DMS-114, in the assay on DMS-273, in the assay on LXFL 529 and with M19-MEL was > 100 µM (inactive) in each case. Further, the GI50 in the assay with XF498 was > 100 µM (inactive).
`CCCCCCCCCC[S+]([O-])CC(CO)NC(=O)/C=C/c1c(C)nc(O)nc1O` (stereo not drawn): the GI50 in the assay with HOP-18 was 1.49 µM (inactive); with KM-20L2, 0.695 µM (active); in the assay on DMS-114 it was 0.152 µM (active); with DMS-273, 0.37 µM (active); with M19-MEL, 0.475 µM (active); in the assay with SNB-78, 0.718 µM (active). In addition, the GI50 in the assay with XF498 was 0.0376 µM (active).
In the case of `CCOC(=O)C1=C(Nc2ccccc2)SC/C1=N\NC(=O)Cc1ccccc1`, the GI50 in the assay on HOP-18, in the assay on KM-20L2, with DMS-273, with LXFL 529, with M19-MEL and in the assay with SNB-78 was > 100 µM (inactive) each time. Moreover, the GI50 in the assay with RXF 631 and with XF498 was > 100 µM (inactive) each time.
For the compound `COc1ccc(/C=N/N=C(\N)NO)c(OC)c1C`, the GI50 with HOP-18 is 5.24 µM (inactive); in the assay on DMS-114, 13.2 µM (inactive); in the assay with LXFL 529, 3.62 µM (inactive); in the assay on SNB-78, 20.5 µM (inactive).
Turning to `CCN(CC)CCC(=O)N1C/C(=C/c2ccccc2)C(=O)/C(=C\c2ccccc2)C1`, the GI50 in the assay on HOP-18 is 2.8 µM (inactive); with KM-20L2, 1.71 µM (inactive); with DMS-114, 1.79 µM (inactive); in the assay on DMS-273, 1.42 µM (inactive); in the assay with LXFL 529, 1.56 µM (inactive); in the assay with M19-MEL, 1.39 µM (inactive). Moreover, in the assay on XF498, the GI50 is 2.63 µM (inactive).
As for `COc1cc2c(c(OC)c1OC)-c1ccc(SC)c(=O)cc1[C@@H](NCc1cccc(C#N)c1)CC2`, the GI50 is 0.0131 µM (active) in the assay with KM-20L2; 0.0153 µM (active) in the assay on DMS-114; 0.00647 µM (active) in the assay with DMS-273; 0.0147 µM (active) in the assay with LXFL 529; 0.0193 µM (active) with M19-MEL; 0.0197 µM (active) in the assay on SNB-78. The results for the GI50 in the assay with RXF 631 and in the assay on XF498 were 0.0075 µM (active) and 0.0257 µM (active), respectively.
On to `COc1cc(NCc2ccc3nc(N)nc(N)c3c2C)cc(OC)c1OC`, for which the GI50 in the assay on HOP-18 is 7.29 µM (inactive); with KM-20L2, 0.0347 µM (active); with DMS-114, 0.025 µM (active); with DMS-273 it was 0.025 µM (active); in the assay with M19-MEL, 0.326 µM (active); in the assay on SNB-78 it was 5.42 µM (inactive). The GI50 in the assay on XF498 is 2.57 µM (inactive).
With `Cc1cc(O)nc(NNC(C#N)c2c(O)ccc3ccccc23)n1` (stereo not drawn), the GI50 was 4.49 µM (inactive) with HOP-18; 24.8 µM (inactive) in the assay on KM-20L2; 2.87 µM (inactive) in the assay with DMS-114; 3.87 µM (inactive) in the assay with DMS-273; 8.79 µM (inactive) in the assay on LXFL 529; 4.68 µM (inactive) with M19-MEL. Further, in the assay on SNB-78, the GI50 was 19.3 µM (inactive).
For the compound `O=C1CCC2(O)c3ccccc3C2Cc2ccccc21` (stereo not drawn), the GI50 with HOP-18, in the assay with KM-20L2, with DMS-114, with DMS-273, in the assay on M19-MEL and with SNB-78 was > 100 µM (inactive) each time. Moreover, in the assay on XF498, the GI50 was > 100 µM (inactive).
As to `COc1ccc(CN(O)C2C(CO)OC(n3cc(I)c(=O)[nH]c3=O)C2O)cc1` (stereo not drawn), the GI50 in the assay with HOP-18, in the assay on KM-20L2, in the assay on DMS-114, in the assay with DMS-273, in the assay on LXFL 529 and in the assay with M19-MEL was > 100 µM (inactive) each time. Besides, the GI50 in the assay on SNB-78 and in the assay on XF498 was > 100 µM (inactive) throughout.
Regarding `COc1cccc(NC(=O)CSc2nnc(Cc3ccccc3)o2)c1`, the GI50 with HOP-18, with KM-20L2, with DMS-114, with DMS-273, with LXFL 529 and with M19-MEL was > 100 µM (inactive) each time. Also, the GI50 with SNB-78 is > 100 µM (inactive).
With `CCOC(=O)CC(NC(=O)c1nc[nH]c1[N+](=O)[O-])C(=O)OCC` (stereo not drawn), the GI50 was 43.3 µM (inactive) in the assay on DMS-114, 40.6 µM (inactive) with DMS-273, 41.5 µM (inactive) in the assay on LXFL 529 and 82 µM (inactive) in the assay on M19-MEL.
On to `COC1=CC(=O)c2c(O)c3c(c(O)c2C1=O)C=C(C)OC3O` (stereo not drawn), for which the GI50 in the assay on KM-20L2 is 0.365 µM (active); with DMS-114, 1.23 µM (inactive); in the assay on DMS-273 it was 1.01 µM (active); in the assay on LXFL 529, 1.36 µM (inactive); in the assay with M19-MEL, 0.224 µM (active); with SNB-78, 1.73 µM (inactive). Also, in the assay on XF498, the GI50 was 1.84 µM (inactive).
Take `CCCCOP1(=O)CC(C)=C(Cl)C(C)(OC)C1` (stereo not drawn): the GI50 in the assay with KM-20L2 was > 100 µM (inactive); in the assay with DMS-273, > 100 µM (inactive); in the assay with LXFL 529 it was 45.2 µM (inactive); with M19-MEL, > 100 µM (inactive); in the assay on SNB-78, > 100 µM (inactive); in the assay with XF498, > 100 µM (inactive).
As for `COc1ccc(C(=C[N+](=O)[O-])c2ccc(OC)cc2)cc1`, the GI50 in the assay with HOP-18 is > 100 µM (inactive); in the assay on KM-20L2, 10.6 µM (inactive); with DMS-114 it was 4.13 µM (inactive); in the assay on DMS-273 it was 2.74 µM (inactive); in the assay with LXFL 529, 16.2 µM (inactive); in the assay with SNB-78, 14.7 µM (inactive). For the same compound, the GI50 in the assay with RXF 631 is 14 µM (inactive).
`O=C1CCN2CCC(=O)c3c2c(cc2ccccc32)N1`: the GI50 in the assay on KM-20L2, in the assay with DMS-114, in the assay with DMS-273, in the assay on LXFL 529, in the assay with M19-MEL and in the assay with SNB-78 was > 100 µM (inactive) in each case. For the same compound, the GI50 in the assay with XF498 is 26.8 µM (inactive).
Turning to `CN/C(=N\C#N)N(Cc1ccccc1)Cc1ccccc1`, the GI50 in the assay with KM-20L2, with DMS-273, in the assay on LXFL 529, in the assay with M19-MEL, in the assay on SNB-78 and with XF498 was > 100 µM (inactive) throughout.
As to `COc1ccc2c(=O)c([Se]c3coc4cc(OC)ccc4c3=O)coc2c1`, the GI50 in the assay on HOP-18 is > 100 µM (inactive); in the assay on KM-20L2, > 100 µM (inactive); in the assay on DMS-114 it was 17.4 µM (inactive); with DMS-273 it was 53.2 µM (inactive); in the assay with LXFL 529, 32.5 µM (inactive); in the assay with M19-MEL it was 28.3 µM (inactive). The GI50 in the assay on SNB-78 is 22.7 µM (inactive); in the assay with XF498, > 100 µM (inactive).
